Experimental data reported in US6806265B2, “Non-nucleoside reverse transcriptase inhibitors” (priority 2002, dated 2004).
Read-outs that look alike come from different tables or passages of the source.

How the values were obtained:
[1] = biological target: T1, HIV-1 RT double mutant K103N/Y181C (Human immunodeficiency virus type 1 group M subtype B, UniProt P03366, K702N/Y780C); experiment: biochemical
T1 construct: HIV-1 wild type reverse transcriptase as well as the clinically significant double mutant K103N/Y181C
Method: (§1) Utilizing the Reverse Transcriptase (RT) Assay described below, compounds were tested for their ability to inhibit the RNA-dependent DNA polymerase activity of HIV-1 RT. Certain specific compounds described in the Examples and in Tables 1-4, were so tested. The results of this testing appear in Table 5 as ranges of IC50 (nM) and EC50 (nM).
(§2) Reverse Transcriptase (RT) Assays

[2] = biological target: T2, HIV-1 wild type reverse transcriptase (Human immunodeficiency virus type 1 group M subtype B, UniProt P03366); experiment: biochemical; conditions: read-out: IC50 WT RT
T2 construct: HIV-1 wild type reverse transcriptase
Method: as §1, §2

[3] = test system: HIV-1 double mutant K103N/Y181C; experiment: microbe, parasite or virus in culture; assay type: cell-based
[4] = RT double mutant K103N/Y181C, read-out: IC50 K103N/Y181C
[5] = Human immunodeficiency virus 1, read-out: EC50 K103N/Y181C (nM)

Row | SMILES | IC50 [1] | IC50 ([2]; wild type RT) | IC50 [1, 4] | further results
1 | CCN1c2ncc(CCOc3ccc(N(Cc4ccc(C(=O)O)cc4)C(C)=O)cc3C)cc2C(=O)N(C)c2cccnc21 [Entry 4003] | > 100 nM | 50 to 100 nM |  | 
2 | CCN1c2ncc(CCOc3ccc(-c4ccc(C(=O)O)c(C)c4)cc3C)cc2C(=O)N(C)c2cccnc21 [Entry 1017] |  | < 50 nM | < 50 nM | 
3 | CCN1c2ncc(CCOc3ccc(-c4cc(C)nc(C)c4)cc3C)cc2C(=O)N(C)c2cccnc21 [Entry 1087] |  | < 50 nM | < 50 nM | 
4 | CCN1c2ncc(CCOc3ccc(-c4ccc(F)c(CC(=O)O)c4)cc3C)cc2C(=O)N(C)c2cccnc21 [Entry 1057] |  | < 50 nM | < 50 nM | 
5 | CCN1c2ncc(CCOc3ccc(-c4cc(C(=O)O)on4)cc3)cc2C(=O)N(C)c2cccnc21 [Entry 1040] |  | < 50 nM | > 100 nM | 
6 | CCN1c2ncc(CCOc3ccc(C(=O)Nc4ccc[n+]([O-])c4)cc3C)cc2C(=O)N(C)c2cccnc21 [Entry 3013] | < 50 nM | < 50 nM |  | 
7 | CCN1c2ncc(CCOc3ccc(Nc4ccccn4)cc3C)cc2C(=O)N(C)c2cccnc21 [Entry 3036] | < 50 nM |  |  | EC50 [3, 5]: < 10 nM
8 | CCN1c2ncc(CCOc3ccc(NS(C)(=O)=O)cc3C)cc2C(=O)N(C)c2cccnc21 [Entry 4005] | < 50 nM | < 50 nM |  | 
9 | CCN1c2ncc(CCOc3ccc(-c4ccc(C(=O)O)c(F)c4)cc3C)cc2C(=O)N(C)c2cccnc21 [Entry 1018] |  | < 50 nM | < 50 nM | 
10 | CCN1c2ncc(CCOc3ccc(-c4ccnc(C)c4)cc3C)cc2C(=O)N(C)c2cccnc21 [Entry 1085] |  | < 50 nM | < 50 nM | 
11 | CCN1c2ncc(CCOc3cccc(-c4cccc(C(=O)O)c4)c3)cc2C(=O)N(C)c2cccnc21 [Entry 2002] |  | > 100 nM |  | 
12 | CCN1c2ncc(CCOc3ccc(-c4c[n+]([O-])ccc4C)cc3C)cc2C(=O)N(C)c2cccnc21 [Entry 1077, 11-Ethyl-5,11-dihydro-5-methyl-8-{2-[2-methyl-4-(4-methyl-1-oxido-3-pyridinyl)phenoxy]ethyl}-6H-dipyrido[3,2-b:2′,3′-e][1,4]diazepin-6-one] | < 50 nM | < 50 nM |  | 
13 | CCN1c2ncc(CCOc3ccc(NC(=O)c4ccc(Cl)nc4)cc3C)cc2C(=O)N(C)c2cccnc21 [Entry 3035] | < 50 nM | < 50 nM |  | 
14 | CCN1c2ncc(CCOc3ccc(-c4ccc(N)nc4)cc3C)cc2C(=O)N(C)c2cccnc21 [Entry 1079] |  | < 50 nM | < 50 nM | 
15 | CCN1c2ncc(CCOc3ccc(-c4cc[n+](C)cc4)cc3C)cc2C(=O)N(C)c2cccnc21 [Entry 1089] |  |  | < 50 nM | EC50 ([3]; double mutant K103N/Y181C, read-out: EC50 K103N/Y181C): < 10 nM
16 | CCN1c2ncc(CCOc3ccc(-c4ccc(CC(=O)O)cc4Cl)cc3C)cc2C(=O)N(C)c2cccnc21 [Entry 1025] |  | < 50 nM | < 50 nM | 
17 | CCN1c2ncc(CCOc3ccc(-c4cc(C)[n+]([O-])c(C)c4)cc3C)cc2C(=O)N(C)c2cccnc21 [Entry 1088] |  | < 50 nM | < 50 nM | 
18 | CCN1c2ncc(CCOc3ccc(S(=O)(=O)c4ccncc4)cc3C)cc2C(=O)N(C)c2cccnc21 [Entry 3037] | < 50 nM |  |  | EC50 [3, 5]: < 10 nM
19 | CCN1c2ncc(CCOc3ccc(-c4cc(C)cnc4N)cc3C)cc2C(=O)N(C)c2cccnc21 [Entry 1082] |  | < 50 nM | < 50 nM | 
20 | CCN1c2ncc(CCOc3ccc(-c4cc[n+]([O-])c(C)c4)cc3C)cc2C(=O)N(C)c2cccnc21 [Entry 1086] |  | < 50 nM | < 50 nM | 
21 | CCN1c2ncc(CCOc3ccc(-c4ncccn4)cc3)cc2C(=O)N(C)c2cccnc21 [Entry 1061] |  | < 50 nM | > 100 nM | 
22 | CCN1c2ncc(CCOc3ccc(-n4ccnc4)cc3C)cc2C(=O)N(C)c2cccnc21 [Entry 1098, 11-Ethyl-5,11-dihydro-8-{2-[4-(1H-imidazol-1-yl)-2-methylphenoxy]ethyl}-5-methyl-6H-dipyrido[3,2-b:2′,3′-e][1,4]diazepin-6-one] | < 50 nM |  |  | EC50 [3, 5]: < 10 nM
23 | CCN1c2ncc(CCOc3ccc(-c4ccc(C(=O)O)o4)cc3)cc2C(=O)N(C)c2cccnc21 [Entry 1045] |  | < 50 nM | 50 to 100 nM | 
24 | CCN1c2ncc(CCOc3ccc(-c4ccc(N)nc4C)cc3C)cc2C(=O)N(C)c2cccnc21 [Entry 1081] |  | < 50 nM | < 50 nM | 
25 | CCN1c2ncc(CCOc3ccc(-c4cnc(N)c(C)c4)cc3C)cc2C(=O)N(C)c2cccnc21 [Entry 1080] |  | < 50 nM | < 50 nM | 
26 | CCN1c2ncc(CCOc3ccc(-c4ccc(CC(=O)O)cc4[N+](=O)[O-])cc3C)cc2C(=O)N(C)c2cccnc21 [Entry 1027] |  | < 50 nM | 50 to 100 nM | 
27 | CCN1c2ncc(CCOc3ccc(C(=O)N(C)Cc4ccc(C(=O)O)cc4)cc3C)cc2C(=O)N(C)c2cccnc21 [Entry 3006] | 50 to 100 nM | < 50 nM |  | 

Row | SMILES | IC50 [1] | IC50 ([2]; wild type RT) | IC50 [1, 4] | further results
28 | CCN1c2ncc(CCOc3ccc(-c4cc(F)c(O)c(F)c4)cc3C)cc2C(=O)N(C)c2cccnc21 [Entry 1103] |  | < 50 nM | 50 to 100 nM | 
29 | CCN1c2ncc(CCOc3ccc(-c4nc(C(=O)O)cs4)cc3)cc2C(=O)N(C)c2cccnc21 [Entry 1039] |  | < 50 nM | > 100 nM | 
30 | CCN1c2ncc(CCOc3ccc(-c4cc(C(=O)O)ccc4F)cc3C)cc2C(=O)N(C)c2cccnc21 [Entry 1029] |  | < 50 nM | 50 to 100 nM | 
31 | CCN1c2ncc(CCOc3ccc(-c4cc[n+]([O-])cc4)cc3C)cc2C(=O)N(C)c2cccnc21 [Entry 1084] |  | < 50 nM | < 50 nM | 
32 | CCN1c2ncc(CCOc3cccc(-c4ccc(C(=O)O)cc4)c3)cc2C(=O)N(C)c2cccnc21 [Entry 2001, 3′-[2-(11-Ethyl-6,11-dihydro-5-methyl-6-oxo-5H-dipyrido[3,2-b:2′,3′-e][1,4]diazepin-8-yl)ethoxy]-[1,1′-biphenyl]-4-carboxylic acid] |  | > 100 nM |  | 
33 | CCN1c2ncc(CCOc3ccc(-c4cc(C)ccn4)cc3C)cc2C(=O)N(C)c2cccnc21 [Entry 1065] |  | < 50 nM | < 50 nM | 
34 | CCN1c2ncc(CCOc3ccc(N(C)c4ccc(C(=O)O)cc4)cc3C)cc2C(=O)N(C)c2cccnc21 [Entry 3023] | 50 to 100 nM | < 50 nM |  | 
35 | CCN1c2ncc(CCOc3cccc(-c4ccccc4)c3)cc2C(=O)N(C)c2cccnc21 [Entry 2003] | > 100 nM | < 50 nM |  | 
36 | CCN1c2ncc(CCOc3ccc(N(CC(=O)O)C(C)=O)cc3C)cc2C(=O)N(C)c2cccnc21 [Entry 4002] | > 100 nM | < 50 nM |  | 
37 | CCN1c2ncc(CCOc3ccc(-c4cnccc4C)cc3C)cc2C(=O)N(C)c2cccnc21 [Entry 1076, 11-Ethyl-5,11-dihydro-5-methyl-8-{2-[2-methyl-4-(4-methyl-3-pyridinyl)phenoxy]ethyl}-6H-dipyrido[3,2-b:2′,3′-e][1,4]diazepin-6-one] | < 50 nM | < 50 nM |  | 
38 | CCN1c2ncc(CCOc3ccc(-c4cscn4)cc3)cc2C(=O)N(C)c2cccnc21 [Entry 1092] |  | < 50 nM | > 100 nM | 
39 | CCN1c2ncc(CCOc3ccc(NC(C)=O)cc3C)cc2C(=O)N(C)c2cccnc21 [Entry 4001] | 50 to 100 nM | < 50 nM |  | 
40 | CCN1c2ncc(CCOc3ccc(C(=O)Nc4cccc[n+]4[O-])cc3C)cc2C(=O)N(C)c2cccnc21 [Entry 3015] | < 50 nM | < 50 nM |  | 
41 | CCN1c2ncc(CCOc3ccc(C(=O)NCc4cc[n+]([O-])cc4)cc3C)cc2C(=O)N(C)c2cccnc21 [Entry 3003] | 50 to 100 nM | < 50 nM |  | 
42 | CCN1c2ncc(CCOc3ccc(-c4cncnc4)cc3)cc2C(=O)N(C)c2cccnc21 [Entry 1062] |  | < 50 nM | > 100 nM | 
43 | CCN1c2ncc(CCOc3ccc(C(=O)NN)cc3C)cc2C(=O)Nc2c(C)ccnc21 [Entry 4019] |  | < 50 nM | 50 to 100 nM | 
44 | CCN1c2ncc(CCOc3ccc(-c4ccc(CC(=O)O)cc4C)cc3C)cc2C(=O)N(C)c2cccnc21 [Entry 1023] |  |  | 50 to 100 nM | 
45 | CCN1c2ncc(CCOc3ccc(-c4ccc(C)[n+]([O-])c4C)cc3C)cc2C(=O)N(C)c2cccnc21 [Entry 1078] |  | < 50 nM | < 50 nM | 
46 | CCN1c2ncc(CCOc3ccc(-c4cc(Cl)c(C(=O)O)cc4F)cc3C)cc2C(=O)N(C)c2cccnc21 [Entry 1020] |  | < 50 nM | < 50 nM | 
47 | CCN1c2ncc(CCOc3ccc(-c4cc(C(=O)O)ccc4OC)cc3C)cc2C(=O)N(C)c2cccnc21 [Entry 1030] |  | < 50 nM | > 100 nM | 
48 | CCN1c2ncc(CCOc3ccc(-c4cccnc4C)cc3C)cc2C(=O)N(C)c2cccnc21 [Entry 1074] |  | < 50 nM | < 50 nM | 
49 | CCN1c2ncc(CCOc3ccc(-c4ccc(CCC(=O)O)o4)cc3)cc2C(=O)N(C)c2cccnc21 [Entry 1048] |  |  | > 100 nM | IC50 [2]: < 50 nM
50 | CCN1c2ncc(CCOc3ccc(C(=O)NCc4ccc(C(=O)O)cc4)cc3C)cc2C(=O)N(C)c2cccnc21 [Entry 3002] | < 50 nM | < 50 nM |  | 
51 | CCN1c2ncc(CCOc3ccc(-c4cccc(C(C)C(=O)O)c4)cc3C)cc2C(=O)N(C)c2cccnc21 (centres unmarked) [Entry 1016] |  | < 50 nM | 50 to 100 nM | 
52 | CCN1c2ncc(CCOc3ccc(-c4ccc(CCC(=O)O)o4)cc3C)cc2C(=O)N(C)c2cccnc21 [Entry 1049] |  |  | > 100 nM | IC50 [2]: < 50 nM
53 | CCN1c2ncc(CCOc3ccc(-c4ccc(C)cc4)cc3C)cc2C(=O)N(C)c2cccnc21 [Entry 1105] |  | < 50 nM | < 50 nM | 
54 | CCN1c2ncc(CCOc3ccc(-c4occc4C(=O)O)cc3)cc2C(=O)N(C)c2cccnc21 [Entry 1050] |  | > 100 nM |  | 
